In patent US20070208005A1, “TETRAHYDROBENZAZEPINES AS ANTAGONISTS AND/OR REVERSE AGONISTS OF THE HISTAMINE H3 RECEPTOR” (priority 2004, published 2007):

Molecular target: T1, histamine H3 receptor (Homo sapiens, UniProt Q9Y5N1)
T1 construct: expressed in transfected cells; host or cells: CHO K1 cells (pSwitch/pGene GeneSwitch system, mifepristone-induced), clone 3H3; membranes
Assay: Histamine H3 functional antagonist assay ([35S]-GTPγS SPA on membranes of H3 cells)
Format: biochemical
Details: membrane prepared from cultured H3 cells (CHO K1, human H3); histamine at EC80; averages of a number of experiments; read-out: functional pKi (fpKi), H3 functional antagonist assay (converted)
Text: A membrane preparation containing histamine H3 receptors may be prepared in accordance with the following procedures:
(i) Generation of Histamine H3 Cell Line
DNA encoding the human histamine H3 gene (Huvar, A. et al. (1999) Mol. Pharmacol. 55(6), 1101-1107) was cloned into a holding vector, pcDNA3.1 TOPO (InVitrogen) and its cDNA was isolated from this vector by restriction digestion of plasmid DNA with the enzymes BamH1 and Not-1 and ligated into the inducible expression vector pGene (InVitrogen) digested with the same enzymes. The GeneSwitch™ system (a system where in transgene expression is switched off in the absence of an inducer and switched on in the presence of an inducer) was performed as described in U.S. Pat. Nos. 5,364,791; 5,874,534; and 5,935,934. Ligated DNA was transformed into competent DH5α E. coli host bacterial cells and plated onto Luria Broth (LB) agar containing Zeocin™ (an antibiotic which allows the selection of cells expressing the sh ble gene which is present on pGene and pSwitch) at 50 μg ml^−1. Colonies containing the re-ligated plasmid were identified by restriction analysis. DNA for transfection into mammalian cells was prepared from 250 ml cultures of the host bacterium containing the pGeneH3 plasmid and isolated using a DNA preparation kit (Qiagen Midi-Prep) as per manufacturers guidelines (Qiagen). CHO K1 cells previously transfected with the pSwitch regulatory plasmid (InVitrogen) were seeded at 2×10e6 cells per T75 flask in Complete Medium, containing Hams F12 (GIBCOBRL, Life Technologies) medium supplemented with 10% v/v dialysed foetal bovine serum, L-glutamine, and hygromycin (100 μg ml^−1), 24 hours prior to use. Plasmid DNA was transfected into the cells using Lipofectamine plus according to the manufacturers guidelines (InVitrogen). 48 hours post transfection cells were placed into complete medium supplemented with 500 μg ml^−1 Zeocin™.
10-14 days post selection 10 nM Mifepristone (InVitrogen), was added to the culture medium to induce the expression of the receptor. 18 hours post induction cells were detached from the flask using ethylenediamine tetra-acetic acid (EDTA; 1:5000; InVitrogen), following several washes with phosphate buffered saline pH 7.4 and resuspended in Sorting Medium containing Minimum Essential Medium (MEM), without phenol red, and supplemented with Earles salts and 3% Foetal Clone II (Hyclone). Approximately 1×10e7 cells were examined for receptor expression by staining with a rabbit polyclonal antibody, 4a, raised against the N-terminal domain of the histamine H3 receptor, incubated on ice for 60 minutes, followed by two washes in sorting medium. Receptor bound antibody was detected by incubation of the cells for 60 minutes on ice with a goat anti rabbit antibody, conjugated with Alexa 488 fluorescence marker (Molecular Probes). Following two further washes with Sorting Medium, cells were filtered through a 50 μm Filcon™ (BD Biosciences) and then analysed on a FACS Vantage SE Flow Cytometer fitted with an Automatic Cell Deposition Unit. Control cells were non-induced cells treated in a similar manner. Positively stained cells were sorted as single cells into 96-well plates, containing Complete Medium containing 500 μg ml^−1 Zeocin™ and allowed to expand before reanalysis for receptor expression via antibody and ligand binding studies. One clone, 3H3, was selected for membrane preparation.
(ii) Membrane Preparation from Cultured Cells
All steps of the protocol are carried out at 4° C. and with pre-cooled reagents. The cell pellet is resuspended in 10 volumes of homogenisation buffer (50 mM N-2-hydroxyethylpiperazine-N′-2-ethanesulfonic acid (HEPES), 1 mM ethylenediamine tetra-acetic acid (EDTA), pH 7.4 with KOH, supplemented with 10e-6M leupeptin (acetyl-leucyl-leucyl-arginal; Sigma L2884), 25 μg/ml bacitracin (Sigma B0125), 1 mM phenylmethylsulfonyl fluoride (PMSF) and 2×10e-6M pepstain A (Sigma)). […]

T1 sequence (Q9Y5N1 whole entry): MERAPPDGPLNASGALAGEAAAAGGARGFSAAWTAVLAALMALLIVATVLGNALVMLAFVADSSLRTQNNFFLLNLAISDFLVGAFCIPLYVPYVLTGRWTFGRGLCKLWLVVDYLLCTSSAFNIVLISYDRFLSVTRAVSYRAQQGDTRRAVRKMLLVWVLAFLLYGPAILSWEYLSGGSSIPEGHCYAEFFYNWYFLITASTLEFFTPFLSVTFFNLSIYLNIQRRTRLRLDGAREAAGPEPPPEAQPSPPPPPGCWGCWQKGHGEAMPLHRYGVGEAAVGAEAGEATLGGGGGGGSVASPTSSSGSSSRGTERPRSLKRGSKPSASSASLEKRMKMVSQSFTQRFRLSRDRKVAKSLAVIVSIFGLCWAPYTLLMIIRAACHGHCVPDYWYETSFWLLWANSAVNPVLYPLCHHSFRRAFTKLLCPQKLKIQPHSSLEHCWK

Ki | SMILES
< 3.16 nM | O=C(NC1CCOCC1)c1ccc(Cc2ccc3c(c2)CCN(C2CCC2)CC3)cc1 [Example E50, 4-[(3-cyclobutyl-2,3,4,5-tetrahydro-1H-3-benzazepin-7-yl)methyl]-N-(tetrahydro-2H-pyran-4-yl)benzamide]
< 3.16 nM | CC(C)NC(=O)c1ccc(Cc2ccc3c(c2)CCN(C2CCC2)CC3)cc1 [Example E51, 4-[(3-cyclobutyl-2,3,4,5-tetrahydro-1H-3-benzazepin-7-yl)methyl]-N-(1-methylethyl)benzamide]
< 3.16 nM | CC(C)NC(=O)c1ccc(Cc2ccc3c(c2)CCN(C2CCC2)CC3)cn1 [Example E53, 5-[(3-cyclobutyl-2,3,4,5-tetrahydro-1H-3-benzazepin-7-yl)methyl]-N-(1-methylethyl)-2-pyridinecarboxamide]
< 3.16 nM | O=C(c1ccc(Cc2ccc3c(c2)CCN(C2CCC2)CC3)cn1)N1CCCC1 [Example E54, 3-cyclobutyl-7-{[6-(1-pyrrolidinylcarbonyl)-3-pyridinyl]methyl}-2,3,4,5-tetrahydro-1H-3-benzazepine]
< 3.16 nM | O=C(NC1CCOCC1)c1ccc(Cc2ccc3c(c2)CCN(C2CCC2)CC3)cn1 [Example E55, 5-[(3-cyclobutyl-2,3,4,5-tetrahydro-1H-3-benzazepin-7-yl)methyl]-N-(tetrahydro-2H-pyran-4-yl)-2-pyridinecarboxamide]
< 3.16 nM | N#Cc1ccc(NC(=O)c2ccc(Cc3ccc4c(c3)CCN(C3CCC3)CC4)cn2)cc1 [Example E56, N-(4-cyanophenyl)-5-[(3-cyclobutyl-2,3,4,5-tetrahydro-1H-3-benzazepin-7-yl)methyl]-2-pyridinecarboxamide]
< 0.316 nM | c1cc(-c2csnn2)ccc1Cc1ccc2c(c1)CCN(C1CCC1)CC2 [Example E57, 3-cyclobutyl-7-{[4-(1,2,3-thiadiazol-4-yl)phenyl]methyl}-2,3,4,5-tetrahydro-1H-3-benzazepine]
< 3.16 nM | O=c1nc(-c2ccc(Cc3ccc4c(c3)CCN(C3CCC3)CC4)cc2)[nH]o1 [Example E58, 3-{4-[(3-cyclobutyl-2,3,4,5-tetrahydro-1H-3-benzazepin-7-yl)methyl]Phenyl}-1,2,4-oxadiazol-5(2H)-one]
< 0.316 nM | c1cnn(-c2ccc(Cc3ccc4c(c3)CCN(C3CCC3)CC4)cc2)c1 [Example E59, 3-cyclobutyl-7-{[4-(1H-pyrazol-1-yl)phenyl]methyl}-2,3,4,5-tetrahydro-1H-3-benzazepine]
< 0.316 nM | c1ncn(-c2ccc(Cc3ccc4c(c3)CCN(C3CCC3)CC4)cc2)n1 [Example E60, 3-cyclobutyl-7-{[4-(1H-1,2,4-triazol-1-yl)phenyl]methyl}-2,3,4,5-tetrahydro-1H-3-benzazepine]

Second part, the compound before the results:

SMILES | Ki
N#Cc1ccc(Cc2ccc3c(c2)CCN(C2CCC2)CC3)nc1 [Example E41, 6-[(3-cyclobutyl-2,3,4,5-tetrahydro-1H-3-benzazepin-7-yl)methyl]-3-pyridinecarbonitrile] | < 3.16 nM
CNC(=O)c1ccc(Cc2ccc3c(c2)CCN(C2CCC2)CC3)nc1 [Example E42, 6-[(3-cyclobutyl-2,3,4,5-tetrahydro-1H-3-benzazepin-7-yl)methyl]-N-methyl-3-pyridinecarboxamide] | < 3.16 nM
O=C(c1ccc(Cc2ccc3c(c2)CCN(C2CCC2)CC3)nc1)N1CCCC1 [Example E43, 3-cyclobutyl-7-{[5-(1-pyrrolidinylcarbonyl)-2-pyridinyl]methyl}-2,3,4,5-tetrahydro-1H-3-benzazepine] | < 3.16 nM
NC(=O)c1ccc(Cc2ccc3c(c2)CCN(C2CCC2)CC3)nc1 [Example E44, 6-[(3-cyclobutyl-2,3,4,5-tetrahydro-1H-3-benzazepin-7-yl)methyl]-3-pyridinecarboxamide] | < 3.16 nM
NC(=O)c1ccc(Cc2ccc3c(c2)CCN(C2CCC2)CC3)cc1 [Example E46, 4-[(3-cyclobutyl-2,3,4,5-tetrahydro-1H-3-benzazepin-7-yl)methyl]benzamide] | < 0.316 nM
CCNC(=O)c1ccc(Cc2ccc3c(c2)CCN(C2CCC2)CC3)cc1 [Example E48, 4-[(3-cyclobutyl-2,3,4,5-tetrahydro-1H-3-benzazepin-7-yl)methyl]-N-ethylbenzamide] | < 3.16 nM
O=C(c1ccc(Cc2ccc3c(c2)CCN(C2CCC2)CC3)cc1)N1CCCC1 [Example E49, 3-cyclobutyl-7-{[4-(1-pyrrolidinylcarbonyl)phenyl]methyl}-2,3,4,5-tetrahydro-1H-3-benzazepine] | < 3.16 nM
